According to US5840684A, “Glycopeptide antibiotic derivatives” (Eli Lilly and Company, priority 1995, dated 1998):
In brackets after ≈: the same amount, converted by molar mass.

Legend:
Streptococcus pneumoniae = experiment: mouse protection, experimentally-induced infection; assay type: in vivo; settings: mice infected with Streptococcus pneumoniae, two doses
Entercoccus faecium 180 = experiment: broth micro-dilution MIC; assay type: cell-based; settings: Entercoccus faecium 180
Description: (§1) The formula I compounds have in vitro and in vivo activity against Gram-positive pathogenic bacteria. The MIC's were determined using a standard broth micro-dilution assay.

[1] = test system: Enterococcus gallinarum 245; experiment: broth micro-dilution MIC; assay type: cell-based; settings: Enterococcus gallinarum 245
Description: as §1

[2] = test system: Staphylococcus epidermidis 270; experiment: broth micro-dilution MIC; assay type: cell-based
Description: as §1

[3] = test system: Streptococcus pneumoniae P1; experiment: broth micro-dilution MIC; assay type: cell-based
Description: as §1

Entercoccus faecium 2041 = experiment: broth micro-dilution MIC; assay type: cell-based; settings: Entercoccus faecium 2041
Description: as §1

[4] = test system: Staphylococcus haemolyticus 415; experiment: broth micro-dilution MIC; assay type: cell-based
Description: as §1

[5] = test system: Staphylococcus haemolyticus 105; experiment: broth micro-dilution MIC; assay type: cell-based
Description: as §1

[6] = test system: vancomycin-resistant enterococci; experiment: broth micro-dilution, mean geometric MIC; assay type: cell-based, Enterococcus faecium and Enterococcus faecalis; settings: enterococci, 24-hour incubation
[7] = test system: vancomycin-susceptible enterococci; experiment: broth micro-dilution, mean geometric MIC; assay type: cell-based, Enterococcus faecium and Enterococcus faecalis; settings: enterococci, 24-hour incubation
[8] = test system: Staphylococcus aureus 446; experiment: broth micro-dilution MIC; assay type: cell-based
Description: (§2) The MIC's were determined using a standard broth micro-dilution assay.

[9] = test system: Entercoccus faecium 180-1; experiment: broth micro-dilution MIC; assay type: cell-based
Description: as §2

[10] = test system: Staphylococcus aureus 447; experiment: broth micro-dilution MIC; assay type: cell-based
Description: as §2

[11] = test system: Staphylococcus aureus X778; experiment: broth micro-dilution MIC; assay type: cell-based
Description: as §2

[12] = test system: Staphylococcus aureus SA1199; experiment: broth micro-dilution MIC; assay type: cell-based
Description: as §2

[13] = test system: Streptococcus pyogenes C203; experiment: broth micro-dilution MIC; assay type: cell-based
Description: as §2

[14] = test system: Staphylococcus aureus SA1199A; experiment: broth micro-dilution MIC; assay type: cell-based
Description: as §2

[15] = test system: Staphylococcus aureus 489; experiment: broth micro-dilution MIC; assay type: cell-based
Description: as §2

[16] = test system: Staphylococcus aureus X400; experiment: broth micro-dilution MIC; assay type: cell-based
Description: as §2

[17] = test system: Staphylococcus aureus 491; experiment: broth micro-dilution MIC; assay type: cell-based
Description: as §2

Entercoccus faecium 276 = experiment: broth micro-dilution MIC; assay type: cell-based
Description: as §2

[18] = test system: Staphylococcus aureus S13E; assay type: cell-based
Description: as §2

[19] = test system: Staphylococcus aureus SA1199B; assay type: cell-based
Description: as §2

Streptococcus pyogenes = experiment: mouse protection, experimentally-induced infection; assay type: in vivo; settings: mice infected with Streptococcus pyogenes, two doses
[20] = test system: Haemophilus influenzae RD; experiment: broth micro-dilution MIC; assay type: cell-based; settings: Haemophilus influenzae RD
Description: as §1

Row | Structure (SMILES) | ED50 (Streptococcus pneumoniae) | MIC (Entercoccus faecium 180) | MIC [1] | MIC [2] | MIC [3] | MIC (Entercoccus faecium 2041) | MIC [4] | MIC [5] | mean geometric MIC, Vancomycin Resistant Strains [6] | mean geometric MIC, Vancomycin Sensitive Strains [7] | MIC [9] | MIC [10] | MIC [11] | MIC [13] | MIC [14] | MIC [16] | MIC [17] | MIC (Entercoccus faecium 276) | MIC [18] | ED50 (Streptococcus pyogenes) | further results
1 | CCCc1ccc(-c2ccc(CNC3(C)CC(OC4C(Oc5c6cc7cc5Oc5ccc(cc5Cl)C(OC5CC(C)(N)C(O)C(C)O5)C5NC(=O)C(NC(=O)C7NC(=O)C(CC(N)=O)NC(=O)C(NC(=O)C(CC(C)C)NC)C(O)c7ccc(c(Cl)c7)O6)c6ccc(O)c(c6)-c6c(O)cc(O)cc6C(C(=O)O)NC5=O)OC(CO)C(O)C4O)OC(C)C3O)cc2)cc1 (stereo not shown) [Compound 107] | 0.092 mg/kg/2 | 0.125 µg/mL (≈ 0.0694 µM) | 2 µg/mL (≈ 1.11 µM) | 0.5 µg/mL (≈ 0.278 µM) | ≤ 0.06 µg/mL | 0.5 µg/mL (≈ 0.278 µM) | 2 µg/mL (≈ 1.11 µM) | 2 µg/mL (≈ 1.11 µM) | 0.59 µg/mL | 0.082 µg/mL | ≤ 0.06 µg/mL | 1 µg/mL (≈ 0.555 µM) | 0.5 µg/mL (≈ 0.278 µM) | ≤ 0.06 µg/mL | ≤ 0.06 µg/mL | 1 µg/mL (≈ 0.555 µM) | 1 µg/mL (≈ 0.555 µM) | 1 µg/mL (≈ 0.555 µM) | 2 µg/mL (≈ 1.11 µM) | 0.27 mg/kg/2 | MIC [8]: 2 µg/mL (≈ 1.11 µM); MIC [12]: 1 µg/mL (≈ 0.555 µM); MIC [15]: 1 µg/mL (≈ 0.555 µM); MIC [19]: 2 µg/mL (≈ 1.11 µM)
2 | CCc1ccc(-c2ccc(CNC3(C)CC(OC4C(Oc5c6cc7cc5Oc5ccc(cc5Cl)C(OC5CC(C)(N)C(O)C(C)O5)C5NC(=O)C(NC(=O)C7NC(=O)C(CC(N)=O)NC(=O)C(NC(=O)C(CC(C)C)NC)C(O)c7ccc(c(Cl)c7)O6)c6ccc(O)c(c6)-c6c(O)cc(O)cc6C(C(=O)O)NC5=O)OC(CO)C(O)C4O)OC(C)C3O)cc2)cc1 (stereo not shown) [Compound 90] | 0.049 mg/kg/2 | 0.25 µg/mL (≈ 0.14 µM) | 2 µg/mL (≈ 1.12 µM) | 1 µg/mL (≈ 0.56 µM) | ≤ 0.06 µg/mL | 0.125 µg/mL (≈ 0.07 µM) | 2 µg/mL (≈ 1.12 µM) | 2 µg/mL (≈ 1.12 µM) | 0.71 µg/mL | 0.041 µg/mL | ≤ 0.06 µg/mL | 1 µg/mL (≈ 0.56 µM) | 1 µg/mL (≈ 0.56 µM) | ≤ 0.06 µg/mL | 0.5 µg/mL (≈ 0.28 µM) | 1 µg/mL (≈ 0.56 µM) | 2 µg/mL (≈ 1.12 µM) | 2 µg/mL (≈ 1.12 µM) | 1 µg/mL (≈ 0.56 µM) | 0.058 mg/kg/2 | MIC [8]: 2 µg/mL (≈ 1.12 µM); MIC [12]: 2 µg/mL (≈ 1.12 µM); MIC [15]: 2 µg/mL (≈ 1.12 µM); MIC [19]: 1 µg/mL (≈ 0.56 µM)
3 | CNC(CC(C)C)C(=O)NC1C(=O)NC(CC(N)=O)C(=O)NC2C(=O)NC3C(=O)NC(C(=O)NC(C(=O)O)c4cc(O)cc(O)c4-c4cc3ccc4O)C(OC3CC(C)(N)C(O)C(C)O3)c3ccc(c(Cl)c3)Oc3cc2cc(c3OC2OC(CO)C(O)C(O)C2OC2CC(C)(NCc3ccc(-c4ccc(Br)cc4)cc3)C(O)C(C)O2)Oc2ccc(cc2Cl)C1O (stereo not shown) [Compound 230] | 0.078 mg/kg/2 | ≤ 0.06 µg/mL | 4 µg/mL (≈ 2.18 µM) | 0.5 µg/mL (≈ 0.272 µM) | ≤ 0.06 µg/mL | ≤ 0.06 µg/mL | 2 µg/mL (≈ 1.09 µM) | 1 µg/mL (≈ 0.544 µM) | 0.35 µg/mL | 0.031 µg/mL | ≤ 0.06 µg/mL | 0.5 µg/mL (≈ 0.272 µM) |  | ≤ 0.06 µg/mL | ≤ 0.06 µg/mL | 0.5 µg/mL (≈ 0.272 µM) |  | ≤ 0.06 µg/mL | 0.5 µg/mL (≈ 0.272 µM) | 0.046 mg/kg/2 | MIC [20]: 32 µg/mL (≈ 17.4 µM)
4 | C=CCCCCCCCCCNC1(C)CC(OC2C(Oc3c4cc5cc3Oc3ccc(cc3Cl)C(OC3CC(C)(N)C(O)C(C)O3)C3NC(=O)C(NC(=O)C5NC(=O)C(CC(N)=O)NC(=O)C(NC(=O)C(CC(C)C)NC)C(O)c5ccc(c(Cl)c5)O4)c4ccc(O)c(c4)-c4c(O)cc(O)cc4C(C(=O)O)NC3=O)OC(CO)C(O)C2O)OC(C)C1O (stereo not shown) [Compound 204] | 0.046 mg/kg/2 |  |  | ≤ 0.06 µg/mL | ≤ 0.06 µg/mL | ≤ 0.06 µg/mL |  | 0.5 µg/mL (≈ 0.287 µM) | 0.71 µg/mL | 0.031 µg/mL |  | ≤ 0.06 µg/mL | 0.5 µg/mL (≈ 0.287 µM) | ≤ 0.06 µg/mL |  |  | 0.5 µg/mL (≈ 0.287 µM) | ≤ 0.06 µg/mL | 0.5 µg/mL (≈ 0.287 µM) | < 0.031 mg/kg/2 | MIC [20]: 2 µg/mL (≈ 1.15 µM)
